This is an account of results in patent US20230331739A1, “INDOLO HEPTAMYL OXIME ANALOG CRYSTAL AS PARP INHIBITOR AND METHOD FOR PREPARING SAME” (CHIA TAI TIANQING PHARMACEUTICAL GROUP CO., LTD., priority 2020, published 2023).

Data set [1] can be described thus: Body weight change in the MDA-MB-436 xenograft study. The data set is classed as in vivo. The settings on record: three dose groups (12.5, 25, 50 mg/kg PO QD). The source says: 3. Daily observation of animals: the animals were monitored daily for health and death, and routine examinations include observation of the effect on tumor growth and the therapy on the daily performance of the animals, such as behavioral activities, food and water intake, change in body weight, appearance, or other abnormal conditions.
1. The body weights of the animals were used as a reference index for indirectly measuring the toxicity of the drug. In this model, no other morbidity or mortality occurred during the study.

The nature of data set [2]: Protein binding rate in plasma (equilibrium dialysis), CD-1 mouse. The data set is classed as in vitro ADME. The settings on record: CD-1 mouse plasma, 4 h dialysis. On the procedure: The protein binding rates of the compound disclosed herein in plasma of human, CD-1 mice and SD rats were determined. 796 μL of blank plasma was taken from human, CD-1 mice or SD rats, and 4 μL of test compound working solution (400 μM) or warfarin working solution (400 μM) was added to achieve a final concentration of 2 μM of both the test compound and the warfarin in the plasma sample. The samples were mixed well. The final concentration of organic phase DMSO was 0.5%; 50 μL of test compound and warfarin plasma sample was pipetted into a sample receiving plate (in triplicate), and a corresponding volume of blank plasma or buffer was immediately added such that the final volume in each sample well was 100 μL. The volume ratio of plasma to dialysis buffer was 1:1. […] All samples were subjected to LC/MS analysis after protein precipitation, and the protein binding rates and the recovery rates were calculated by the following formulas: protein unbinding rate (%)=100× drug concentration passing through dialysis membrane/drug concentration not passing through dialysate; protein binding rate (%)=100−protein unbinding rate (%); recovery rate (%)=100×(drug concentration passing through dialysis membrane+drug concentration not passing through dialysate)/total drug concentration before dialysis.

The test system of data set [3] is PARylation in Lovo cells. The data set can be described thus: PARylation inhibition in Lovo cells. The data set is classed as cell-based. The settings on record: Homo sapiens, 25 mM H2O2. On the procedure:
Experimental materials: test compounds, F12K medium, Lovo cells, Anti-Poly (ADP-ribose) mouse monoclonal antibody; FITC-labeled goat anti-mouse IgG; hydrogen peroxide; DAPI; PBS; methanol; acetone; Tween-20; skimmed milk powder; Envision Multimode Plate Reader.
Day One: Lovo cells were seeded on a plate at 60,000 cells/well, and then incubated overnight at 37° C./5% CO2.
1. Washing solution: Tween-20 was added to 1×PBS, and the final concentration of Tween-20 was 0.05%.
2. Blocking solution: Skimmed milk powder was added to the washing solution, and the final concentration of the skimmed milk powder was 5%.
3. Cell immobilization solution: Methanol and acetone were mixed in a ratio of 7:3.
Preparation of test compounds: Compound intermediate plate 1: The compound was diluted to final concentrations of 10 μM to 0.13 nM with DMSO and PBS, and the concentration of DMSO was 1%; Compound intermediate plate 2: The compound was diluted to final concentrations of 10 μM to 0.13 nM with DMSO and PBS containing 50 mM hydrogen peroxide, and the concentration of DMSO was 1%.
1. […]
10. […] After removal of the liquid, corresponding fluorescence values were read on Envision: FITC: 480 nm and 530 nm; DAPI: 360 nm and 460 nm. […]

The structures appear in SMILES notation. pIC50: −log10 of the molar value.

What is called fraction unbound is the share of the substance not bound to proteins or other matrix. A low value points to little free substance. One may read the pIC50 as −log10 of the IC50, conventionally taken in molar units. Read a low pIC50 as a high IC50. With `C[C@]1(c2ccc(-c3[nH]c4cc(F)cc5c4c3CONC5=O)cc2)CCCN1` [Compound 1], in data set [1], the “change in body weight” value is given as “little change in body weight”. The fraction unbound at 4 h, 2 μM in data set [2] was 0.104. Further, in data set [3], the pIC50 was 7.72.
